The values below come from patent US9932340B2, “Substituted indoles” (AbbVie Inc., priority 2014, dated 2018).

As usually defined, the IC50 is the point on the concentration scale where inhibition reaches its midpoint.

Chain of SUV420H1 enzyme (Q4FZB7 whole entry): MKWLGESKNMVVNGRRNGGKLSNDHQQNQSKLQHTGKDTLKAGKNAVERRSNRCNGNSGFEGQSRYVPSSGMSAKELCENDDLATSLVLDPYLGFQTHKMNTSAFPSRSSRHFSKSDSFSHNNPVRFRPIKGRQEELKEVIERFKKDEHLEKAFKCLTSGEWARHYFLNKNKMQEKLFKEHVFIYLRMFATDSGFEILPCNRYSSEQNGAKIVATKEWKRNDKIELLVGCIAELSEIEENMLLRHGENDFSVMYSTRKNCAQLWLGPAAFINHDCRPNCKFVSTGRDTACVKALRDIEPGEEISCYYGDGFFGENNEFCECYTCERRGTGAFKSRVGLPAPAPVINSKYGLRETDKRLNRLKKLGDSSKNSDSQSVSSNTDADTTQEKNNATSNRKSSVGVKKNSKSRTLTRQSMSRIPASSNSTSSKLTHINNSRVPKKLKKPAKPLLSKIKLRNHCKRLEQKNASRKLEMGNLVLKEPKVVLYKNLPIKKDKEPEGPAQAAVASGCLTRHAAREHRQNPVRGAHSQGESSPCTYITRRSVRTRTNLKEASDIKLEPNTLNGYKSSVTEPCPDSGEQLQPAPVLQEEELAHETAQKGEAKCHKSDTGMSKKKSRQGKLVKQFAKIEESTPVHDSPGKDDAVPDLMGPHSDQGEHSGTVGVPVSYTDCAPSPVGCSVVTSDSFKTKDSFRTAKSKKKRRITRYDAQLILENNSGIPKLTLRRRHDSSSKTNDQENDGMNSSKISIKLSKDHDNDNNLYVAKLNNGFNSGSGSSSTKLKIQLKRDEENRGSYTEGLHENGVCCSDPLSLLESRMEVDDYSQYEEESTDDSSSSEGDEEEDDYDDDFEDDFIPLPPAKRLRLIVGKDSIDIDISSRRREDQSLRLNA

For the test, the target named is SUV420H1 enzyme (Homo sapiens, UniProt Q4FZB7). In words: TR-FRET SAH SUV420H1 enzyme inhibition assay. Conditions: Histone Peptide H4(8-30)me1 and SAM, overnight at room temp, TR-FRET detection of SAH, read-out: TR-FRET SAH_SUV420H1 IC50. Type of test: biochemical. The gist of the method:
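SUV420H1 (90 nM) preincubated 30 min with compound (3-fold dilutions, 50 to 0.00075 μM), then H4(8-30)me1 peptide 5 nM and SAM 4 nM added, overnight at room temp. SAH product detected by TR-FRET with Tb anti-SAH antibody and Oregon Green-SAH in RIPA buffer, 4 h; IC50 from Hill fit, asymptotes fixed 0-100%.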
For orientation: In TR-FRET formats the signal depends on donor and acceptor labels being close together.
With `CC(=O)N1CC=C(c2cc(Cn3cnc4c(N)ncnc43)c3[nH]c(CNC(=O)c4ccc(C#N)cc4C)cc3c2)CC1` [Example 307, N-({5-(1-acetyl-1,2,3,6-tetrahydropyridin-4-yl)-7-[(6-amino-9H-purin-9-yl)methyl]-1H-indol-2-yl}methyl)-4-cyano-2-methylbenzamide], the IC50 was determined as 0.0297 µM.

Consider `N#Cc1ccc(C(=O)NCc2cc3cc(C4=CCNCC4)cc(Cn4cnc5c(N)ncnc54)c3[nH]2)c(Cl)c1` [Example 277, N-({7-[(6-amino-9H-purin-9-yl)methyl]-5-(1,2,3,6-tetrahydropyridin-4-yl)-1H-indol-2-yl}methyl)-2-chloro-4-cyanobenzamide], for which the concentration for half-maximal inhibition (IC50) came out at 0.0351 µM. As to `Cc1noc(C)c1C(=O)NCc1cc2cc(C3=CCCNC3)cc(Cn3cnc4c(N)ncnc43)c2[nH]1` [Example 163, N-({7-[(6-amino-9H-purin-9-yl)methyl]-5-(1,2,5,6-tetrahydropyridin-3-yl)-1H-indol-2-yl}methyl)-3,5-dimethyl-1,2-oxazole-4-carboxamide], the IC50 was found to be 0.127 µM. The result for “4-{[({7-[(6-amino-9H-purin-9-yl)methyl]-5-chloro-1H-indol-2-yl}methyl)amino]methyl}-N,N-dimethylbenzamide [Example 318]” reads 3.49 µM. In the case of `NCc1cc2cc(-c3ccccc3F)cc(Cn3cnc4c(N)ncnc43)c2[nH]1` [Example 27, 9-{[2-(aminomethyl)-5-(2-fluorophenyl)-1H-indol-7-yl]methyl}-9H-purin-6-amine] it was 1.21 µM; in that of `Cc1noc(C)c1C(=O)NCc1cc2cc(-c3ccc(C#N)cc3)cc(Cn3cnc4c(N)ncnc43)c2[nH]1` [Example 171, N-({7-[(6-amino-9H-purin-9-yl)methyl]-5-(4-cyanophenyl)-1H-indol-2-yl}methyl)-3,5-dimethyl-1,2-oxazole-4-carboxamide], 0.173 µM. As to `Nc1ncnc2c1ncn2Cc1cc(Cl)cc2cc(CNC(=O)c3ccccn3)[nH]c12` [Example 195, N-({7-[(6-amino-9H-purin-9-yl)methyl]-5-chloro-1H-indol-2-yl}methyl)pyridine-2-carboxamide], the IC50 was over 50 µM. As to `Cc1cc(C(=O)NCc2cc3cc(Cl)cc(Cn4cnc5c(N)ncnc54)c3[nH]2)c(C)nn1` [Example 234, N-({7-[(6-amino-9H-purin-9-yl)methyl]-5-chloro-1H-indol-2-yl}methyl)-3,6-dimethylpyridazine-4-carboxamide], the IC50 amounted to 0.0606 µM. The result for `C=CC(=O)NCc1cc2cc(Cl)cc(Cn3cnc4c(N)ncnc43)c2[nH]1` [Example 93, N-({7-[(6-amino-9H-purin-9-yl)methyl]-5-chloro-1H-indol-2-yl}methyl)prop-2-enamide] reads 9.73 µM. In the case of `Nc1ncnc2c1ncn2Cc1cc(Cl)cc2cc(CNC(=O)CCN3CCCC3)[nH]c12` [Example 122, N-({7-[(6-amino-9H-purin-9-yl)methyl]-5-chloro-1H-indol-2-yl}methyl)-3-(pyrrolidin-1-yl)propanamide], the IC50 was determined as 4.77 µM.

On to `Nc1ncnc2c1ncn2Cc1cc(Cl)cc2cc(CNC(=O)C3CCC3)[nH]c12` [Example 111, N-({7-[(6-amino-9H-purin-9-yl)methyl]-5-chloro-1H-indol-2-yl}methyl)cyclobutanecarboxamide], for which the IC50 came to 8.8 µM. Turning to `Cc1cc(C(=O)NCc2cc3cc(C4=CCNCC4)cc(Cn4cnc5c(N)ncnc54)c3[nH]2)c(C)nn1` [Example 235, N-({7-[(6-amino-9H-purin-9-yl)methyl]-5-(1,2,3,6-tetrahydropyridin-4-yl)-1H-indol-2-yl}methyl)-3,6-dimethylpyridazine-4-carboxamide], the half-maximal inhibitory concentration (IC50) came to 0.0492 µM.

In the case of `NCc1cc2c(-c3ccc(F)cc3)ccc(Cn3cnc4c(N)ncnc43)c2[nH]1` [Example 73, 9-{[2-(aminomethyl)-4-(4-fluorophenyl)-1H-indol-7-yl]methyl}-9H-purin-6-amine], the IC50 amounted to 0.722 µM. In the case of `Cc1cccc(Cl)c1CNCc1cc2cc(Cl)cc(Cn3cnc4c(N)ncnc43)c2[nH]1` [Example 243] it was 5.46 µM.
